This is an account of results in a melting point compilation (Tetko et al.; mined from patent text by program, amines drawn as free bases though some values may be those of a salt).

By melting point is commonly meant the temperature, or range, at which the solid turns liquid.

In turn, `COC(=O)c1cc(F)ccc1Nc1ccnc2c(Cl)cccc12` gave a melting point of 196 °C. `O=c1oc2ccccc2cc1CCN1CCC(Nc2nc3ccccc3n2Cc2ccc(F)cc2)CC1` displayed a melting point of 168 °C. Compound `CCCC(=O)c1cnc2ccc(O)cc2c1Nc1ccc(O)cc1C` had a melting point of 242 to 244 °C. The compound `CCCCC1(CCCC)CS(=O)(=O)c2ccc(N(C)C)cc2[C@@H](c2ccc(OCc3ccc(C(=O)O)cc3)cc2)[C@H]1O` came in with a melting point of 156 to 159 °C. `CCCCN(c1nc(Cl)nc(N(CCCC)C2CC(C)(C)N(OC3CCCCC3)C(C)(C)C2)n1)C1CC(C)(C)N(OC2CCCCC2)C(C)(C)C1`: the melting point fell in the range of 75 to 82 °C. `CC12C=CC(=O)C=C1CCC1C2C(O)CC2(C)C1CC(OCCO)C2(O)C(=O)CO` (stereo unspecified) displayed a melting point of 138 to 140 °C. `CCS(=O)(=O)c1cc(C(=O)Cl)c(OC)cc1Cl` yielded a melting point of 115 to 117 °C. As for `COc1ccc2nc(C(=O)NCc3ccc(C(=O)O)cc3)[nH]c(=O)c2c1`, the melting point is 287 to 288 °C. In turn, `COC(=O)C1=C(C)Nc2nc(N3CCOCC3)nc(N3CCOCC3)c2C1c1ccccc1C#N` (stereo unspecified) registered a melting point of 221 °C.

The compound `Oc1ccccc1-c1ccnc(-c2ccccc2)n1` yielded a melting point of 195 to 198 °C. `CCOC(=O)CC1CCCc2cc(O)c(C(=O)c3ccccc3)cc21` (stereo unspecified) registered a melting point of 118 to 120 °C. `CNC(=O)c1ccccc1Nc1nc(Nc2ccc3c(c2)CNC(=O)CCN3)ncc1Cl` yielded a melting point of 267 to 268 °C.

`CC(C1CC1)C1NNC(=S)N(N)C1=O` (stereo unspecified) registered a melting point of 142 to 143 °C. `CCOC(=O)c1sc(S(C)(=O)=O)c2c1CCc1c(Br)nn(C)c1-2` returned a melting point of 195 to 196 °C. As to `COc1ccc(N2CCN(c3ccc(NC(=O)NN)nc3)CC2)cc1`, the melting point lay within 260 to 263 °C. `CC(C)c1ccc(N(Cc2ccc(Cl)cc2)C(=O)C2CCCc3ccccc32)cc1` (stereo unspecified) had a melting point of 122 to 123 °C. Compound `CC(=O)c1nc2cccc(OC(F)(F)F)c2cc1OCc1ccccc1` showed a melting point of 90 to 92 °C.

`CC1=C(CNC(=O)NC(C)C)c2cc(F)ccc2/C1=C\c1ccc(S(C)(=O)=O)cc1` yielded a melting point of 217 °C.

`CCOC(=O)c1c(N2CCOCC2)c2ccc(C)nc2n(CC)c1=O` showed a melting point of 129 to 131 °C. `CC(C)(C)OC(=O)Nc1ccc(CN2C(=O)C3(COc4cc5c(cc43)OCCO5)c3ccccc32)cn1` (stereo unspecified) yielded a melting point of 238 to 239 °C. `Cc1nnc(SCC(=O)C23CC4CC(CC(C4)C2)C3)n1Cc1ccc(Cl)cc1`: the melting point lay within 158 to 159 °C. As to `Cc1n[nH]c2ccc(-c3nn(C(C)c4oc5ccccc5c(=O)c4-c4cccc(F)c4)c4ncnc(N)c34)cc12` (stereo unspecified), the melting point lay within 254 to 256 °C. On to `CCCc1c(OCCCOc2ccc3c(c2CCC)OC(CCC#N)CC3)ccc(C(C)=O)c1O` (stereo unspecified), for which the melting point lay in the range of 89 to 89.5 °C. The value for `COc1cc([N+](=O)[O-])c2nccc(C)c2c1Oc1ccc(Cl)cc1Cl` was 166 to 168 °C; that for `Cc1ccc(OC2SCC(O)C(O)C2O)c(-c2ccncc2)n1` (stereo unspecified) was 196 to 200 °C; that for `CCN(CC)CCN1C(=O)Nc2cnccc2C1c1ccccc1` (stereo unspecified) was 138 to 140 °C. With `CCC1(CC)C(=O)NC(C)(C)C(C)(C)N1OC(C)(C)C#N`, the melting point lay in the range of 140 to 145 °C. `CCN(CC)c1nc(C(F)(F)C(F)(F)F)nn1-c1c(Cl)cc(Cl)cc1Cl` displayed a melting point of 66 to 70 °C.

The compound `CCCCc1nc2cnc3cc(C)ccc3c2o1` gave a melting point of 52 to 55 °C. The value for `Cn1cccc1CCNCC(O)COc1cccc2[nH]ccc12` (stereo unspecified) was 105 to 106 °C; that for `COc1c(Cl)ccc(-c2cc(N)c(Cl)c(C(=O)NOC(C)C)n2)c1F` was 190 to 193 °C; that for `COc1cc2oc(=O)c3c(c2cc1[N+](=O)[O-])CCN(CC(C)=O)C3` was 222 to 225 °C. Compound `CCc1nc(-c2nn(Cc3ccccc3F)c3ccccc23)oc1CO` displayed a melting point of 144 °C.

For `COc1ccc(S(=O)(=O)NCc2ccco2)c2cc(C(C)=O)oc12`, the melting point was in the range of 182 to 184 °C. Compound `COC(=O)c1ccc2c(C(C(=O)O)c3ccc4c(c3)OCO4)cn(C)c2c1` (stereo unspecified) yielded a melting point of 194 to 198 °C.

As for `Nc1ccc(Sc2ccnc(N)c2)cc1`, the melting point fell in the range of 141 to 143 °C. Turning to `CCOC(=O)C(=CNc1cccc(N)c1)C(=O)OCC`, the melting point fell in the range of 71 to 74 °C. The compound `COc1ccc(C(=O)c2c(O)c3ccccc3[nH]c2=O)cc1OC` registered a melting point of 235 to 236 °C. The compound `CCCCNC1=NS(=O)(=O)c2sc(Cl)cc2N1` yielded a melting point of 218 to 219 °C. In the case of `CC(C)(OC(=O)C1C2CCC(C2)C1C(F)(F)F)C(F)(F)F` (stereo unspecified), the melting point was in the range of 87 to 90 °C. `CSCCC1N=C(c2ccccc2)c2cc(Cl)ccc2NC1=O` (stereo unspecified) returned a melting point of 184 °C. Take `CNc1ccc2cccc(OCCOc3nccnc3N3CCNCC3)c2n1`: the melting point fell in the range of 54 to 56.5 °C. The compound `O=C1Nc2cc3c(cc2SC1CCCN1CCN(c2ccc(F)cc2)CC1)OCO3` (stereo unspecified) gave a melting point of 175 to 177 °C. `O=c1[nH]ncn1N=Cc1cccnc1` returned a melting point of 264 to 265 °C. Then `CNc1ncc2cc(-c3ccccc3)c(NC)nc2n1`, with 204 to 205 °C; and `OC(c1nccn1CCc1ccccc1)C1CCNCC1` (stereo unspecified), with 145 °C. As to `CCN(C(=O)OCc1ccccc1)c1cc(Cl)c2c(c1)C(c1ccccc1F)=NC(C)(C)C(=O)N2C`, the melting point was in the range of 150 to 151 °C. Then `O=c1[nH]c(=O)n(-c2ccccc2)n1-c1ccccc1`, with 216 to 217 °C; and `CCOC(=O)c1c[nH]c2oc3ccccc3c(=O)c2c1=O`, with 174 to 175 °C; and `Cn1c(=O)c2cccnc2n(-c2cccc([N+](=O)[O-])c2)c1=O`, with 234 to 235 °C.

The compound `CC(=O)N(CC1CC1)c1cccc(-c2ccc3nnc(C)n3n2)c1` came in with a melting point of 118 to 121 °C. In the case of `CN=C(O)c1cc([N+](=O)[O-])cc([N+](=O)[O-])c1C(=O)O`, the melting point was in the range of 174 to 176 °C.

As to `c1ccc(-c2ncc(-c3ncco3)cn2)cc1`, the melting point fell in the range of 175 to 177 °C. Compound `Cc1ncoc1C(O)c1ccco1` (stereo unspecified) came in with a melting point of 52 to 54 °C. In the case of `N#Cc1cccc(-c2nc(-c3ccccn3)no2)c1`, the melting point is 148 to 149 °C. On to `O=C1Nc2ccncc2C(c2ccccc2)N1C1CCN(Cc2ccccc2)CC1` (stereo unspecified), for which the melting point lay in the range of 209 to 210 °C. Compound `CCOC(=O)c1cc2c3c(c(-c4ccccc4Cl)cc2n1CCCOC)C(=O)NC3=O` registered a melting point of 235 to 237 °C. As to `CCCCOc1c(CN)n(CC(C)C)c(=O)c2ccc(/C=C/C(N)=O)cc12`, the melting point was in the range of 173 to 175 °C. `COc1ccc(-c2ccccn2)c(NC(=O)CC(C)NC(=O)OC(C)(C)C)c1` (stereo unspecified) returned a melting point of 143 to 145 °C. Then `CC(C)(CO)Cc1ccccc1`, with 34 to 36 °C; and `OC1(c2cccc(Cl)c2)CCN(c2nc3ccc(C(F)(F)F)cc3[nH]2)CC1`, with 247 °C. Compound `COC(=O)C1=C(O)c2sc3ccccc3c2S(=O)(=O)N1Cc1ccc(OC)cc1` registered a melting point of 163 to 164 °C.

For the compound `CCOP(=O)(CNCc1cccnc1-c1cc(C(C)(C)C)c(O)c(C(C)(C)C)c1)OCC`, the melting point fell in the range of 100 to 101 °C. Turning to `CC(=O)NCc1ccc2c(c1)CN(C1CCC(=O)NC1=O)C2=O` (stereo unspecified), the melting point lay in the range of 183 to 185 °C.

The compound `CC1=CC(O)C(O)C(C)(C)CC1OC(=O)c1ccccc1` (stereo unspecified) registered a melting point of 94 to 96 °C. On to `Nc1nccc(-c2c[nH]c3nccc(OCc4ccccc4)c23)n1`, for which the melting point is > 210 °C. On to `COC(=O)c1ccc(C=CC(=O)N2CCc3c([nH]c4ccccc34)C2c2ccc3c(c2)OCCO3)cc1` (stereo unspecified), for which the melting point stood at 136 °C. In turn, `CCCNc1ncnc2c1ncn2Cc1c(F)cccc1Cl` showed a melting point of 166 to 167 °C. Consider `CCc1ccc(N=c2sc3ncccc3c(=O)n2CC)cc1`, for which the melting point was in the range of 148 to 149 °C. In turn, `CSCCCCCn1c(CCC(C)=O)nc2c(N)nc3ccccc3c21` showed a melting point of 179 to 181 °C.

Compound `O=C(NC1N=C(c2ccccc2F)c2ccccc2NC1=O)c1cc2ccccc2o1` (racemic) displayed a melting point of 289 to 291 °C. As to `O=c1[nH]c2cc(C(F)(F)F)ccc2n1-c1cc(C(F)(F)F)cc([N+](=O)[O-])c1O`, the melting point was > 360 °C. `COC(=O)c1nc(Br)cc(Br)c1OCc1ccccc1` registered a melting point of 75 to 76 °C. The compound `CC(=O)N(O)C(C)c1ccc(C#Cc2cccs2)cc1` (stereo unspecified) registered a melting point of 128 to 129 °C.

In turn, `CCCCNC(=S)Nc1ccccc1N1CCOCC1` returned a melting point of 105 °C. `CC(C)(C)COc1cccc(C[C@H]2NC(=O)O[C@H]2c2cccc(Cl)c2)c1` (racemic) returned a melting point of 141 to 142 °C.

In turn, `O=C(O)CCN(CCCOc1ccc(C(=O)O)cc1)c1ccc(Cl)cc1` yielded a melting point of 132 to 133 °C. For the compound `COC(Nc1ccccc1)(OC)c1ccnc(C(=O)c2ccccc2)c1`, the melting point fell in the range of 123 to 124 °C. `COC(=O)[C@H](Cc1cccc2ccccc12)NC(=O)[C@H](CC(=O)OC(C)(C)C)NC(=O)c1cccc(NC(=O)C(Cc2ccc(C#N)cc2)NC(=O)OC(C)(C)C)c1` (mixture of isomers): the melting point lay in the range of 182 to 185 °C. The compound `Cc1oc(-c2ccccc2)nc1COc1ccc(OCc2oc(-c3ccccc3)nc2/C=C/C(=O)O)cc1` registered a melting point of 209 to 210 °C.

For the compound `CCc1nn2c(-c3ccc(Cl)cc3Cl)cnnc2c1C(CC)CC`, the melting point is 117 to 118 °C. Compound `O=C1CCCSC1C(=O)c1ccc([N+](=O)[O-])cc1Cl` (stereo unspecified) came in with a melting point of 59.5 to 62.5 °C. `COC(=O)c1cc(NC(=O)COc2ccccc2)c2cc(Cc3ccc(F)cc3)cnc2c1O` gave a melting point of 172 to 173 °C. The value for `O=C(Nc1c(C(O)(C(F)(F)F)C(F)(F)F)ccc2ccccc12)c1ccc(Br)cc1` was 155 to 156 °C; that for `Cc1cccc(-c2[nH]c(C(C)C)nc2-c2ccc(F)c(-c3ccc(OCCN4CCCC4=O)cc3)c2)n1` was 95 °C. Then `CC(=O)OC1CC(COC(=O)c2ccccc2)OC1n1cc(F)c(=O)[nH]c1=O` (stereo unspecified), with 68 to 70 °C.
